Among the data in patent US20070155764A1, “NOVEL SUBSTITUTED PYRIMIDINYLOXY UREAS USEFUL AS INHIBITORS OF PROTEIN KINASES” (KALYPSYS, INC., priority 2005, published 2007) are IC50 values, retold here.

For orientation: IC50 means the concentration that gives 50% inhibition.

Holding throughout (assay type): biochemical
One experiment has as its target T1, PDGFRβ kinase (Homo sapiens, UniProt P09619).
T1 construct: purchased Invitrogen Inc. P3082
In words: In vitro PDGFRβ kinase assay. To be noted: ADP Quest assay, poly Glu:Tyr substrate, 60 μM ATP. Here is the method:
(§1) In vitro vegfr2 and PDGFRβ Kinase Assays
(§2) 2.5 μl of ADP Quest assay buffer (DiscoverX Inc., cat. #90-0071) containing 20 ng VEGFR2 kinase (Invitrogen Inc, cat. #PV3660) or 25 ng PDGFRβ kinase (Invitrogen Inc., cat. #P3082) is dispensed to wells of a 1536 multi-well, black solid plate. 60 nl of 100× concentration of test compound in DMSO is dispensed to the well by passive pin transfer and incubated for 10 minutes at room temperature (approx. 22° C.). 2.5 μl of ADP Quest assay buffer containing 0.25 μg of poly Glu:Tyr (4:1) substrate peptide (Upstate Inc., cat. #12-440) and 60 μM ATP is then dispensed and the kinase reaction allowed to incubate at 30° C. for 2 hours. The assay plates are sealed and maintained in a humidified environment. After the 2 hour incubation, 2 μl of ADP Quest assay reagent A, followed by 2 μl of assay reagent B, is added. After an additional 30 minute incubation at room temperature, fluorescence intensity is measured on a Molecular Devices Aquest multi-mode plate reader or other suitable plate reader (fluorescence excitation filter: 530/25 [Peak (nm)/FWHM passband (nm)]; dichroic beamsplitter: 561 nm longpass; fluorescence emission filter: 580/10 [Peak (nm)/FWHM passband (nm)]. The assay measures the conversion of a non-fluoresecent molecule to fluorescent resorutin, which correlates with kinase activity. Negative control activity is measured with DMSO lacking any test compound. The positive control is [N-(3-trifluoromethyl-4-chlorophenyl)-N′-(4-(2-methylcarbamoyl-pyridin-4-yl)oxyphenyl)urea], aka Bay 43-9006. Efficacy is measured as a percentage of positive control activity.

The target in experiment [1] is T2, human B-Raf protein kinase (Homo sapiens, UniProt P15056).
T2 construct: GST (N); purchased Upstate Inc. 14-530 (B-Raf); 14-420 (Mek1)
In words: In vitro B-Raf/Mek1 composite kinase assay. To be noted: recombinant GST-tagged human B-Raf (Δ1-415) with inactive Mek1, 2 μM ATP. Here is the method:
In Vitro B-Raf/Mek1 Composite Kinase Assay
2.5 μl of B-Raf kinase buffer (20 mM MOPS [pH 7.2], 25 mM sodium glycerophosphate, 2 mM EGTA [pH 8.0], 1 mM sodium orthovanadate, 1 mM dithiothreitol, 10 mM MgCl2, 0.03% Brij-35, 0.3 mg/ml bovine serum albumin) containing 1 ng of recombinant, N-terminal GST-tagged human B-Raf protein kinase (Δ1-415, Upstate Inc., cat. #14-530) is dispensed to wells of a 1536 multi-well white solid plate. 60 nl of 100× concentration of test compound in DMSO is dispensed to the well by passive pin transfer and incubated for 15 minutes at room temperature (approx. 22° C.). […] The assay plates are sealed and maintained in a humidified environment. After 2 hours, 2.5 μl of PKLight protein kinase assay reagent (Cambrex, cat. #LT07-501) is dispensed. After an additional 5 minute incubation at room temperature, luminescence activity is measured on a Molecular Devices Analyst multi-mode plate reader or other suitable plate reader. Kinase inhibition results in less ATP depletion, and therefore increased luminescence signal. Negative control activity is measured with DMSO lacking any test compound. The positive control is [N-(3-trifluoromethyl-4-chlorophenyl)-N′-(4-(2-methylcarbamoyl-pyridin-4-yl)oxyphenyl)urea], aka Bay 43-9006. Efficacy is measured as a percentage of positive control activity.

The next experiment addresses T3, VEGFR2 kinase (Homo sapiens, UniProt P35968).
T3 construct: purchased Invitrogen Inc PV3660
In words: In vitro VEGFR2 kinase assay. To be noted: ADP Quest assay, poly Glu:Tyr substrate, 60 μM ATP. Here is the method:
as §1, §2

T1 sequence (P09619 33-1106): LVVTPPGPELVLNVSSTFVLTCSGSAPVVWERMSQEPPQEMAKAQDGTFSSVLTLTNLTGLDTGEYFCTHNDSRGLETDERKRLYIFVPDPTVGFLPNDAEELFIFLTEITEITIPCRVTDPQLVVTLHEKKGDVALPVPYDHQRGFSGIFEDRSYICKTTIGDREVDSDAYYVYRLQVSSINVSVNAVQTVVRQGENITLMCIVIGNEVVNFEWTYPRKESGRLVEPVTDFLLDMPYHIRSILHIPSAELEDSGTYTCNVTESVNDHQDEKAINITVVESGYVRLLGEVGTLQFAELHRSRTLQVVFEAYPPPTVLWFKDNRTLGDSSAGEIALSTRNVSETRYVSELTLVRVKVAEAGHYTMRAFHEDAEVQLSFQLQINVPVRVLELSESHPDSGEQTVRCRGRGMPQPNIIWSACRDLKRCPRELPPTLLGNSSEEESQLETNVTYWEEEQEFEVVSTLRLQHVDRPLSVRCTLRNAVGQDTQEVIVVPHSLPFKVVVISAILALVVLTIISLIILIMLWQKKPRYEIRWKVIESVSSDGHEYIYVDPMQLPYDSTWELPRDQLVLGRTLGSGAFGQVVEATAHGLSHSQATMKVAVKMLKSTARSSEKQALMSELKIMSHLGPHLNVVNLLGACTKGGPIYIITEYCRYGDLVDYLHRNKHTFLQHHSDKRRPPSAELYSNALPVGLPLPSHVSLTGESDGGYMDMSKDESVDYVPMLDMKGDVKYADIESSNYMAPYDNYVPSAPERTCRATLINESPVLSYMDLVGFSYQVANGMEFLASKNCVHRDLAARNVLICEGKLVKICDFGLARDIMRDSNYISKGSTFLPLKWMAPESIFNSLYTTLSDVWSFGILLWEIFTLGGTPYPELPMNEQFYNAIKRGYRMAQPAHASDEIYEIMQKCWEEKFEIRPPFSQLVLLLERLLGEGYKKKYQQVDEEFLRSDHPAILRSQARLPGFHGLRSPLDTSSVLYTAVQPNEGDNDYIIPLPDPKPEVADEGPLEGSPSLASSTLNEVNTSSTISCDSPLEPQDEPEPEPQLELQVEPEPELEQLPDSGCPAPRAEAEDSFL
T3 sequence (P35968 20-1356): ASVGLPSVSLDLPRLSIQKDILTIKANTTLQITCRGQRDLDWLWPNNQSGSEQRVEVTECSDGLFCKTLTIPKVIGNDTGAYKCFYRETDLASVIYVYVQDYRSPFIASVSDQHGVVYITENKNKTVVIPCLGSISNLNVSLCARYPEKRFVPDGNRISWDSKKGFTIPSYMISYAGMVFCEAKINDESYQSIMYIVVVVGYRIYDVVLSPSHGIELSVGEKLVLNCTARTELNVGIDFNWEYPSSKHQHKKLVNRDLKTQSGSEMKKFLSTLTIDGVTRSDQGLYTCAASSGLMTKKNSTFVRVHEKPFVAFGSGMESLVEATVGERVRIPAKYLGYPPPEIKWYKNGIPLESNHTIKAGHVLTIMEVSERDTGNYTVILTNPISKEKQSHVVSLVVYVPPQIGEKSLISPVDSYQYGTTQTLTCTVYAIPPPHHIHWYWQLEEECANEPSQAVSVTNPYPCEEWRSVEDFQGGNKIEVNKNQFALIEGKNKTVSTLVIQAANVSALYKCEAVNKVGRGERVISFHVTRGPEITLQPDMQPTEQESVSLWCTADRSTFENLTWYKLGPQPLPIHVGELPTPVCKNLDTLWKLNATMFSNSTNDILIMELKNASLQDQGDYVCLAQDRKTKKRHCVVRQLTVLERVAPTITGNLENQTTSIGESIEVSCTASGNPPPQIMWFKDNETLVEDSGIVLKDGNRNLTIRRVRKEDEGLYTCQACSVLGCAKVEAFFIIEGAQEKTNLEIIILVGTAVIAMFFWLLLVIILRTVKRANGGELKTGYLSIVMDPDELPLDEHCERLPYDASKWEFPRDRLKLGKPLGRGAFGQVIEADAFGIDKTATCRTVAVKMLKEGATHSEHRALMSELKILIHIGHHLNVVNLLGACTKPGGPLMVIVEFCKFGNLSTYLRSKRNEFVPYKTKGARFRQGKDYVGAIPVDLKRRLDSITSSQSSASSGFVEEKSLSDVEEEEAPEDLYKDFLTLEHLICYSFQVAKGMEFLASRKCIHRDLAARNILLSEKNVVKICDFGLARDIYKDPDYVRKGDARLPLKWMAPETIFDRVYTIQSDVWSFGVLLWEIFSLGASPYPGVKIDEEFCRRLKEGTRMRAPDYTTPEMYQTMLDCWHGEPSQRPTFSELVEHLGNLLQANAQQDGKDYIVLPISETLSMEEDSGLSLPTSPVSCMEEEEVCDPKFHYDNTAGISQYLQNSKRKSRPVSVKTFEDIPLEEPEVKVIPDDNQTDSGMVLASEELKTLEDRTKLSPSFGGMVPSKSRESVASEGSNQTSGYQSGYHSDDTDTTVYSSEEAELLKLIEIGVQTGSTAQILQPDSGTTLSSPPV
T2 sequence (P15056 416-766): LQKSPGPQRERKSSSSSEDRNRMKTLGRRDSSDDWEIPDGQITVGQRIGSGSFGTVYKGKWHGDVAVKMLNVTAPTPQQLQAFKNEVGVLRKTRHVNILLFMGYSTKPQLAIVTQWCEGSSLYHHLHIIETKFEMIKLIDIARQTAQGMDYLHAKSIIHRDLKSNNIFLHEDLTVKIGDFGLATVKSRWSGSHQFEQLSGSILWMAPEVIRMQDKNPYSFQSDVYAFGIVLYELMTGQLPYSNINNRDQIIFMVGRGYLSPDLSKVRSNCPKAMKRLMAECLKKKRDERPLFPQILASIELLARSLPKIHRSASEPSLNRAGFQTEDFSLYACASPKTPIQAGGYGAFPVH

Turning to `O=C(Nc1ccc(Oc2cc(-c3ncn[nH]3)ncn2)cc1)Nc1ccc(Cl)c(C(F)(F)F)c1` [Example 22, 1-(4-(6-(1H-1,2,4-Triazol-5-yl)pyrimidin-4-yloxy)phenyl)-3-(4-chloro-3-(trifluoromethyl)phenyl)urea], the IC50 (on PDGFRβ kinase; in experiment [1]; against VEGFR2 kinase) was at most 10 µM throughout.
For `Cn1ncnc1-c1cc(Oc2ccc(NC(=O)Nc3ccc(Cl)c(C(F)(F)F)c3)cc2)ncn1` [Example 23, 1-(4-Chloro-3-(trifluoromethyl)phenyl)-3-(4-(6-(1-methyl-1H-1,2,4-triazol-5-yl)pyrimidin-4-yloxy)phenyl)urea], the IC50 (on PDGFRβ kinase; in experiment [1]; at VEGFR2 kinase) was at most 10 µM each time.
Consider `CN1CCN(Cc2cc(NC(=O)Nc3cccc(Oc4cc(-c5nnco5)ncn4)c3)cc(C(F)(F)F)c2)CC1` [Example 24, 1-(3-(6-(1,3,4-Oxadiazol-2-yl)pyrimidin-4-yloxy)phenyl)-3-(3-((4-methylpiperazin-1-yl)methyl)-5-(trifluoromethyl)phenyl)urea], for which the IC50 (at PDGFRβ kinase; in experiment [1]; on VEGFR2 kinase) was at most 10 µM in each case.
For `CCN(CC)Cc1cc(NC(=O)Nc2cccc(Oc3cc(-c4nnco4)ncn3)c2)cc(C(F)(F)F)c1` [Example 25, 1-(3-(6-(1,3,4-Oxadiazol-2-yl)pyrimidin-4-yloxy)phenyl)-3-(3-((diethylamino)methyl)-5-(trifluoromethyl)phenyl)urea], the 50% inhibitory concentration (IC50) (against PDGFRβ kinase; in experiment [1]; at VEGFR2 kinase) was at most 10 µM each time.
For `O=C(Nc1cccc(Oc2cc(-c3nnco3)ncn2)c1)Nc1cc(C(F)(F)F)c(Cl)cc1OCCN1CCCC1` [Example 26, 1-(3-(6-(1,3,4-Oxadiazol-2-yl)pyrimidin-4-yloxy)phenyl)-3-(4-chloro-2-(2-(pyrrolidin-1-yl)ethoxy)-5-(trifluoromethyl)phenyl)urea], the concentration for half-maximal inhibition (IC50) (against PDGFRβ kinase; in experiment [1]; against VEGFR2 kinase) was at most 10 µM in each case.
`O=C(Nc1cccc(Oc2cc(-c3ccc[nH]3)ncn2)c1)Nc1ccc(Cl)c(C(F)(F)F)c1` [Example 27, 1-(3-(6-(1H-Pyrrol-2-yl)pyrimidin-4-yloxy)phenyl)-3-(4-chloro-3-(trifluoromethyl)phenyl)urea]: the IC50 (against PDGFRβ kinase; in experiment [1]; at VEGFR2 kinase) was at most 10 µM each time.
Turning to `O=C(Nc1ccc(Oc2cc(-c3ccc[nH]3)ncn2)cc1)Nc1ccc(Cl)c(C(F)(F)F)c1` [Example 28, 1-(4-(6-(1H-Pyrrol-2-yl)pyrimidin-4-yloxy)phenyl)-3-(4-chloro-3-(trifluoromethyl)phenyl)urea], the IC50 (against PDGFRβ kinase; in experiment [1]; at VEGFR2 kinase) was at most 10 µM in each case.
Regarding `Cc1nc(C)c(-c2cc(Oc3cccc(NC(=O)Nc4ccc(Cl)c(C(F)(F)F)c4)c3)ncn2)s1` [Example 29, 1-(4-Chloro-3-(trifluoromethyl)phenyl)-3-(3-(6-(2,4-dimethylthiazol-5-yl)pyrimidin-4-yloxy)phenyl)urea], the IC50 (on PDGFRβ kinase; in experiment [1]; on VEGFR2 kinase) was at most 10 µM each time.
For the molecule `Cc1nc(C)c(-c2cc(Oc3ccc(NC(=O)Nc4ccc(Cl)c(C(F)(F)F)c4)cc3)ncn2)s1` [Example 30, 1-(4-Chloro-3-(trifluoromethyl)phenyl)-3-(4-(6-(2,4-dimethylthiazol-5-yl)pyrimidin-4-yloxy)phenyl)urea], the IC50 on PDGFRβ kinase was at most 10 µM; in experiment [1], over 10 µM; on VEGFR2 kinase, at most 10 µM.
Turning to `O=C(Nc1ccc(Oc2cc(-c3nnco3)ncn2)cc1)Nc1cc(C(F)(F)F)c(Cl)cc1OCCN1CCCC1` [Example 31, 1-(4-(6-(1,3,4-Oxadiazol-2-yl)pyrimidin-4-yloxy)phenyl)-3-(4-chloro-2-(2-(pyrrolidin-1-yl)ethoxy)-5-(trifluoromethyl)phenyl)urea], the IC50 (against PDGFRβ kinase; in experiment [1]; on VEGFR2 kinase) was at most 10 µM in each case.
Take `CCN(CC)CCNC(=O)c1cc(NC(=O)Nc2cccc(Oc3cc(-c4nnco4)ncn3)c2)cc(C(F)(F)F)c1` [Example 32, 3-(3-(3-(6-(1,3,4-Oxadiazol-2-yl)pyrimidin-4-yloxy)phenyl)ureido)-N-(2-(diethylamino)ethyl)-5-(trifluoromethyl)benzamide]: the IC50 (against PDGFRβ kinase; in experiment [1]; against VEGFR2 kinase) was at most 10 µM in each case.
As to `O=C(Nc1cccc(Oc2cc(-c3nnco3)ncn2)c1)Nc1cc(CN2CCOCC2)cc(C(F)(F)F)c1` [Example 33, 1-(3-(6-(1,3,4-Oxadiazol-2-yl)pyrimidin-4-yloxy)phenyl)-3-(3-(morpholinomethyl)-5-(trifluoromethyl)phenyl)urea], the IC50 (at PDGFRβ kinase; in experiment [1]; against VEGFR2 kinase) was at most 10 µM each time.
Turning to `Cn1cc(-c2cc(Oc3ccc(NC(=O)Nc4ccc(Cl)c(C(F)(F)F)c4)cc3)ncn2)cn1` [Example 35, 1-(4-Chloro-3-(trifluoromethyl)phenyl)-3-(4-(6-(1-methyl-1H-pyrazol-4-yl)pyrimidin-4-yloxy)phenyl)urea], the 50% inhibitory concentration (IC50) (against PDGFRβ kinase; in experiment [1]; against VEGFR2 kinase) was at most 10 µM in each case.
On to `CN1CCN(Cc2cc(NC(=O)Nc3cccc(Oc4cc(-c5ncco5)ncn4)c3)cc(C(F)(F)F)c2)CC1` [Example 36, 1-(3-((4-Methylpiperazin-1-yl)methyl)-5-(trifluoromethyl)phenyl)-3-(3-(6-(oxazol-2-yl)pyrimidin-4-yloxy)phenyl)urea], for which the values for the IC50 (on PDGFRβ kinase; in experiment [1]; against VEGFR2 kinase) were at most 10 µM, at most 10 µM and over 10 µM, respectively.
As for `O=C(Nc1cccc(Oc2ccnc(-c3nnco3)c2)c1)Nc1cc(C(F)(F)F)c(Cl)cc1OCCN1CCCC1` [Example 37, 1-(3-(2-(1,3,4-Oxadiazol-2-yl)pyridin-4-yloxy)phenyl)-3-(4-chloro-2-(2-(pyrrolidin-1-yl)ethoxy)-5-(trifluoromethyl)phenyl)urea], the IC50 (on PDGFRβ kinase; in experiment [1]; against VEGFR2 kinase) was at most 10 µM each time.
With `CN1CCN(Cc2cc(NC(=O)Nc3cccc(Oc4ccnc(-c5nnco5)c4)c3)cc(C(F)(F)F)c2)CC1` [Example 38, 1-(3-(2-(1,3,4-Oxadiazol-2-yl)pyridin-4-yloxy)phenyl)-3-(3-((4-methylpiperazin-1-yl)methyl)-5-(trifluoromethyl)phenyl)urea], the IC50 (on PDGFRβ kinase; in experiment [1]; at VEGFR2 kinase) was at most 10 µM in each case.
On to `CN1CCN(Cc2cc(NC(=O)Nc3ccc(Oc4ccnc(-c5nnco5)c4)cc3)cc(C(F)(F)F)c2)CC1` [Example 39, 1-(4-(2-(1,3,4-Oxadiazol-2-yl)pyridin-4-yloxy)phenyl)-3-(3-((4-methylpiperazin-1-yl)methyl)-5-(trifluoromethyl)phenyl)urea], for which the IC50 (against PDGFRβ kinase; in experiment [1]; against VEGFR2 kinase) was at most 10 µM throughout.
On to `O=C(Nc1cccc(Oc2cc(-c3ccn[nH]3)ncn2)c1)Nc1ccc(Cl)c(C(F)(F)F)c1` [Example 40, 1-(3-(6-(1H-Pyrazol-5-yl)pyrimidin-4-yloxy)phenyl)-3-(4-chloro-3-(trifluoromethyl)phenyl)urea], for which the IC50 (on PDGFRβ kinase; in experiment [1]; against VEGFR2 kinase) was at most 10 µM throughout.
